Laboratory results published in US5932189A, “Cyclic peptide somatostatin analogs” (Diatech, Inc., priority 1994, dated 1999).
Square brackets hold non-standard residues; d marks the D form. Peptide text beside a SMILES is read from it. * marks the point of attachment. X4 = NCCCC[C@H](NC(=O)[C@H](CS)NC(=O)CNC(=O)[C@@H](N)CCCCNC(=O)C*)C(N)=O; X8 = NC(=O)[C@H](CCC(=O)O)NC(=O)[C@H](CS)NC(=O)CNC(=O)[C@H](CS)NC(=O)C*; X2 = N=C(N)NCCC[C@H](NC(=O)[C@H](CS)NC(=O)CNC(=O)CNC(=O)C*)C(N)=O; X1 = NCCCC[C@H](NC(=O)[C@H](CS)NC(=O)CNC(=O)CNC(=O)C*)C(N)=O; NMeF = CN[C@@H](Cc1ccccc1)C(=O)O; hCys = N[C@@H](CCS)C(=O)O

Molecular target: T1, somatostatin receptors (Rattus norvegicus, UniProt P30680)
T1 construct: endogenous in cells; host or cells: AR42J rat pancreatic tumor cell line (membrane preparation)
Experiment: Inhibition of binding of (125I-Tyr11)somatostatin-14 to AR42J rat pancreatic tumor cell membranes
Conditions: 0.5 nM (125I-Tyr11)somatostatin-14, 25 min at 30° C., Hill plots
Experimental: Inhibition of Binding of (^125 I-Tyr^11)somatostatin-14 to AR42J Rat Pancreatic Tumor Cell Membranes
The rat pancreatic tumor cell line AR42J which expresses the somatostatin receptor was cultured in Dulbecco's minimal essential media (DMEM) supplemented with 10% fetal bovine serum (FBS) and 8 mM glutamine in a humidified 5% CO2 atmosphere at 37° C. in T-flasks. Harvested cells were homogenized in cold 50 mM Tris-HCl buffer (pH 7.4) and the homogenate then centrifuged at 39,000 g for 10 min at 4° C. Pellets were washed once with buffer and then resuspended in an ice-cold solution of 10 mM Tris-HCl (pH 7.4). Equal aliquots of this cell membrane preparation were incubated with (^125 I-Tyr^11)somatostatin-14 (at a final concentration of 0.5 nM and 750,000 cpm/mL, at a specific activity of 2000 Ci/mmol, Amersham, Arlington Heights, Ill.) and peptide at a final concentration of from 10^-11 M to 10^-6 M in a solution of 50 mM HEPES (pH 7.4) containing 1% bovine serum albumin (BSA), 5 mM MgCl2, Trasylol (200,000 International Units), bacitracin (0.02 mg/mL) and phenylmethylsulfonylfluoride (0.02 mg/mL) for 25 min at 30° C. Using a filtration manifold, this mixture was filtered through a polyethyleneimine-washed GC/F filter (Whatman, Maidstone, England), and the residue remaining on the filter washed thrice with 5 mL cold HEPES buffer. The filter and a sample of the filter washings were then counted in a gamma counter. To assess non-specific binding, the assay was performed in the presence of unlabeled somatostatin-14 at 200 nM. Data analysis including Hill plots of the data provided inhibition constants (see Bylund & Yamamura, "Methods of receptor binding", in Methods in Neurotransmitter Receptor Analysis, Yamamura et al., eds., Raven Press: New York, 1990).

T1 sequence (P30680 whole entry): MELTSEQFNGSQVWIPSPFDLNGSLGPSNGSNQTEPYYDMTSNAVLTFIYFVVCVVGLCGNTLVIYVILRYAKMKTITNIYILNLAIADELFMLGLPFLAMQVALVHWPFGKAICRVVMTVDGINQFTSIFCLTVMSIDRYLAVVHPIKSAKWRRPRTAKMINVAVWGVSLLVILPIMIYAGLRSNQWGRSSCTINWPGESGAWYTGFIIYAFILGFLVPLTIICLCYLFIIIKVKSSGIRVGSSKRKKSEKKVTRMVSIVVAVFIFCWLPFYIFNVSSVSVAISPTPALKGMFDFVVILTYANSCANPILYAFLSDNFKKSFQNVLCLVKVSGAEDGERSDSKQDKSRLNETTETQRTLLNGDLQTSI

Ki [nM] | SMILES
0.26 | C[C@@H](O)[C@@H]1NC(=O)[C@H](CCCCN)NC(=O)[C@@H](Cc2c[nH]c3ccccc23)NC(=O)[C@H](Cc2ccc(O)cc2)NC(=O)[C@H](Cc2ccccc2)N(C)C(=O)[C@H](CCS)NC1=O [cyclo.(N--CH3)F.YWD KT.Hcy] (cyclo(KT[hCys][NMeF]Y[dW]))
4.2 | CC(C)[C@@H]1NC(=O)[C@H](CCCCN)NC(=O)[C@@H](Cc2c[nH]c3ccccc23)NC(=O)[C@H](Cc2ccc(O)cc2)NC(=O)[C@H](Cc2ccccc2)N(C)C(=O)[C@H](CCSCC(=O)NCCCC[C@H](N)C(=O)NCC(=O)N[C@@H](CS)C(=O)N[C@@H](CCCCN)C(N)=O)NC1=O [cyclo.(N--CH3)F.YWD KV.Hcy(CH2 CO.(ε-K)GCK.amide)] (cyclo([NMeF]Y[dW]KV[hCys](X4)))
8.5 | CC(C)[C@@H]1NC(=O)[C@H](CCCCN)NC(=O)[C@@H](Cc2c[nH]c3ccccc23)NC(=O)[C@H](Cc2ccc(O)cc2)NC(=O)[C@H](Cc2ccccc2)N(C)C(=O)[C@H](CCSCC(=O)N[C@@H](CS)C(=O)NCC(=O)N[C@@H](CS)C(=O)N[C@@H](CCC(=O)O)C(N)=O)NC1=O [cyclo.(N--CH3)F.YWD KV.Hcy(CH2 CO.CGCE.amide)] (cyclo(KV[hCys](X8)[NMeF]Y[dW]))
2.5 | CC(C)[C@@H]1NC(=O)[C@H](CCCCN)NC(=O)[C@@H](Cc2c[nH]c3ccccc23)NC(=O)[C@H](Cc2ccc(O)cc2)NC(=O)[C@H](Cc2ccccc2)N(C)C(=O)[C@H](CCSCC(=O)NCC(=O)NCC(=O)N[C@@H](CS)C(=O)N[C@@H](CCCCN)C(N)=O)NC1=O [cyclo.(N--CH3)F.YWD KV.Hcy(CH2 CO.GGCK.amide)] (cyclo([NMeF]Y[dW]KV[hCys](X1)))
0.29 | CC(C)[C@@H]1NC(=O)[C@H](CCCCN)NC(=O)[C@@H](Cc2c[nH]c3ccccc23)NC(=O)[C@H](Cc2ccc(O)cc2)NC(=O)[C@H](Cc2ccccc2)N(C)C(=O)[C@H](CCSCC(=O)NCC(=O)NCC(=O)N[C@@H](CS)C(=O)N[C@@H](CCCNC(=N)N)C(N)=O)NC1=O [cyclo.(N--CH3)F.YWD KV.Hcy(CH2 CO.GGCR.amide)] (cyclo([NMeF]Y[dW]KV[hCys](X2)))
< 0.01 | CC(C)[C@@H]1NC(=O)[C@H](CCCCN)NC(=O)[C@@H](Cc2c[nH]c3ccccc23)NC(=O)[C@H](Cc2ccc(O)cc2)NC(=O)[C@H](Cc2ccccc2)N(C)C(=O)[C@H](CCS)NC1=O [cyclo.(N--CH3)F.YWD KV.Hcy] (cyclo(KV[hCys][NMeF]Y[dW]))
